Patent US8519110B2, “mRNA cap analogs” (Board of Supervisors of Louisiana State University And …, priority 2008, dated 2013)

Legend:
Human DcpS = target: T1, Human DcpS (Homo sapiens, UniProt Q96C86); assay: Assay of susceptibility to DcpS (RP HPLC); type: biochemical
T1 construct: made in house; host or cells: Escherichia coli
T1 sequence (Q96C86 1-337): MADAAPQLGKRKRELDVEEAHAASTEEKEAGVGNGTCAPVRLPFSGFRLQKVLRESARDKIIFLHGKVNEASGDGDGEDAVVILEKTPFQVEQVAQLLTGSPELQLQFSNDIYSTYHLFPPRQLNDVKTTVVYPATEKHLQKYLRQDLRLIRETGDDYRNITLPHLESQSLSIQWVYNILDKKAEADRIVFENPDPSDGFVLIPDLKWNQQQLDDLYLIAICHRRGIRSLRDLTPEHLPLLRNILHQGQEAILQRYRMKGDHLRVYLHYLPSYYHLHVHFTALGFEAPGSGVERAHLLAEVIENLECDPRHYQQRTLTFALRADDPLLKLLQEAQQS
Procedure, shortened: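 E. coli-expressed human DcpS reacted with 40 μM cap analog at 30° C in 50 mM Tris-HCl pH 7.9, 20 mM MgCl2, 60 mM (NH4)2SO4. Samples taken at 10, 30, 60 and 120 min, heat-inactivated, and analysed by RP HPLC (methanol gradient in 0.1 M KH2PO4 pH 6.0).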

[1] = Chemical stability in solution and on storage; type: physicochemical
Description: FIG. 5 depicts the synthesis of m2^7,2′-OGppSepG. The selenophosphate (PSeO3^−3) was prepared by a modification of the method described in R. Glass et al., “Selenophosphate,” Meth. Enzymol., vol. 252, pp. 309-315 (1995). Trimethylsilyl phosphite was treated with selenium in pyridine to give trimethylsilyl selenophosphate, which was then desilylated by methanol in the presence of triethylamine to give the selenophosphate triethylammonium salt. This compound was coupled with the imidazolide derivative of 7,2′-O-dimethylguanosine 5′-monophosphate (m2^7,2′-OGMP-Im) to give 7,2′-O-dimethylguanosine 5′-O-(2-selenodiphosphate) (m2^7,2′-OGDPβSe). […] The reaction was very rapid; essentially 100% conversion of m2^7,2′-OGMP-Im into m2^7,2′-OGDPβSe was observed by RP HPLC after 15 min. […] Thus, care was taken to maintain the pH at 7 or above during purification of m2^7,2′-OGDPβSe, which allowed the product to be isolated with 80% yield after ion-exchange chromatography. The m2^7,2′-OGDPβSe was then coupled with the imidazolide derivative of GMP in the presence of excess ZnCl2. Two peaks were observed by RP HPLC, corresponding to two m2^7,2′-OGppSepG diastereomers, which were designated D1 and D2 according to their elution order. However, the coupling proceeded slowly, and complete disappearance of m2^7,2′-OGDPβSe took about two days. The extended reaction time allowed partial hydrolysis of m2^7,2′-OGDPβSe to m2^7,2′-OGMP, and only a moderate reaction yield (40% conversion by HPLC, 25% isolated). The diastereomeric mixture of m2^7,2′-OGppSepG after isolation by ion-exchange chromatography was successfully resolved into pure diastereomers by RP HPLC. The products were characterized by mass spectrometry, ^1H NMR, and ^31P NMR to confirm structures and homogeneity.

[2] = system: rabbit reticulocyte lysate system; assay: In vitro translation efficiency of capped luciferase mRNA, method I transcripts; type: biochemical; details: for Translation efficiency in comparison with m^7GpppG-LUC mRNA, Experiment No. 2: experiment 2; for Translation efficiency in comparison with m^7GpppG-LUC mRNA, Experiment No. 3: experiment 3; for Translation efficiency in comparison with m^7GpppG-LUC mRNA, Experiment No. 4: experiment 4; for Translation efficiency in comparison with m^7GpppG-LUC mRNA, Mean: mean of experiments; for In vitro translational efficiency, method I: relative to m^7GpppG-capped luciferase mRNA = 1.0
Description: A DNA template for in vitro transcription was synthesized by PCR from the plasmid SP6p-5′UTR β-globin-LUCiferase. The template contained the SP6 promoter followed by the 5′-UTR sequence of rabbit β-globin mRNA and the entire firefly luciferase mRNA coding region. A typical in vitro transcription reaction mixture (50 μl) contained SP6 transcription buffer (Fermentas, cat. no. EP0131), 2 μg of DNA template, 2 U/μl RiboLock Ribonuclease Inhibitor (Fermentas), 2 mM each of ATP, CTP, and UTP, 0.1 mM GTP, and 1 mM dinucleotide cap analog. The reaction mixture was incubated at 37° C. for 5 min before the addition of SP6 RNA polymerase (Fermentas) to a final concentration of 2 U/μl. After 30 min of incubation at 37° C., GTP was added to a final concentration of 1 mM, and the reaction continued for an additional 90 min. The reaction mixtures were then treated with 1 U of DNase RQ1 (RNAse-free, Promega) per μg of template DNA in transcription buffer at 37° C. for 20 min. RNA transcripts were purified on DEPC-treated Sephadex G-50 spin columns (Pharmacia). The integrity of transcripts was confirmed by electrophoresis on a non-denaturating, 1% agarose gel. Concentrations were determined spectrophotometrically. The transcripts were stored at −80° C. until used.
A micrococcal nuclease-treated rabbit reticulocyte lysate system (Flexi Rabbit Reticulocyte Lysate System, Promega) was used for in vitro translation. Translation reactions were performed in 10 μl for 60 min at 30° C. A typical reaction mixture contained 40% reticulocyte lysate, the 20 “standard” amino acids (0.01 mM each), MgCl2 (1.2 mM), potassium acetate (170 mM), and mRNA (five different concentrations of each transcript, ranging from 0.25 to 4 μg/ml). Luciferase activity was measured in a luminometer (Glomax, Promega). Linear regression was used to fit the data points (luciferase activity versus concentration of mRNA transcript), and translational efficiency was defined as the slope of this line. The relative translational efficiencies of the test mRNAs were compared to that of m^7GpppG-capped luciferase mRNA, the latter being defined as 1.0.

[3] = 40 μM cap analog, 30° C., up to 120 min

Susceptibility to DcpS (Human DcpS; Table 3) | Stability in aqueous solution [1] | Susceptibility to DcpS (Human DcpS; [3]) | Translation efficiency in comparison with m^7GpppG-LUC mRNA, Experiment No. 1 ([2]; experiment 1) | Translation efficiency in comparison with m^7GpppG-LUC mRNA, Experiment No. 2 [2] | Translation efficiency in comparison with m^7GpppG-LUC mRNA, Experiment No. 3 [2] | Translation efficiency in comparison with m^7GpppG-LUC mRNA, Experiment No. 4 [2] | Translation efficiency in comparison with m^7GpppG-LUC mRNA, Mean [2] | In vitro translational efficiency, method I [2] | Compound
hydrolyzed | stable in aqueous solution |  |  |  |  |  |  |  | CO[C@@H]1[C@H](O)[C@@H](COP(=O)(O)OP(O)(=[Se])OP(=O)(O)OC[C@H]2O[C@@H](n3cnc4c(=O)[nH]c(N)nc43)[C@H](O)[C@@H]2O)O[C@H]1n1c[n+](C)c2c(=O)[nH]c(N)nc21 (single isomer, unassigned) [m2^7,2′-OGppSepG (D1), m2^7,2′-OGppSepG]
hydrolyzed | stable in aqueous solution |  |  |  |  |  |  |  | CO[C@@H]1[C@H](O)[C@@H](COP(=O)(O)OP(O)(=[Se])OP(=O)(O)OC[C@H]2O[C@@H](n3cnc4c(=O)[nH]c(N)nc43)[C@H](O)[C@@H]2O)O[C@H]1n1c[n+](C)c2c(=O)[nH]c(N)nc21 (single isomer, unassigned) [m2^7,2′-OGppSepG (D2), m2^7,2′-OGppSepG]
hydrolyzed |  | hydrolyzed | 1.00 | 1.00 | 1.00 | 1.00 | 1.00 | 1.00 | Cn1c[n+]([C@@H]2O[C@H](COP(=O)(O)OP(=O)(O)OP(=O)(O)OC[C@H]3O[C@@H](n4cnc5c(=O)[nH]c(N)nc54)[C@H](O)[C@@H]3O)[C@@H](O)[C@H]2O)c2nc(N)[nH]c(=O)c21 [m^7GpppG, m^7G(5′)ppp(5′)G, reference compound]
 |  | resistant |  | 2.63 | 2.91 | 2.89 | 2.81 | 2.81 ± 0.16 | m^7GppBH3pm^7G
